According to patent US10206907B2, “Compounds useful for the treatment of degenerative and inflammatory diseases” (GALAPAGOS NV, priority 2008, dated 2019):
pIC50: −log10 of the molar value.

How the values were obtained:
[1] = Microsomal stability, rat liver microsomes; assay type: in vitro ADME; settings: percentage of compound remaining after 60 minutes, 3 μM compound
In short: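 Percent parent remaining after 60 min was determined by LCMS against a time-zero sample quenched before microsome addition. Incubations ran at 37°C with liver microsomes and a G6PDH-based NADPH-regenerating cofactor mix. Quench was MeOH or ACN (1:1).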

[2] = target: Recombinant human TYK2 catalytic domain (Homo sapiens (Human), UniProt P29597); assay: TYK2 inhibition assay; assay type: biochemical; settings: semi-quantitative score
In short: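 Recombinant human TYK2 catalytic domain; radiometric kinase reaction run 90 min at 30° C, stopped with phosphoric acid, washed and counted by scintillation.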

[3] = tested on: Collagen antibody-induced arthritis; assay: MAB model (collagen antibody-induced arthritis); assay type: in vivo, mouse; settings: 30 mg/kg p.o., DBA/J mice
Protocol: The MAB model allows a rapid assessment of the modulation of an RA-like inflammatory response by therapeutics ([…]. Nature Protocols (2006) 2512-2516: Collagen antibody-induced arthritis). DBA/J mice were injected i.v. with a cocktail of mAbs directed against collagen II. One day later, compound treatment was initiated (vehicle: 10% (v/v) HPβCD). Three days later, mice received an i.p. LPS injection (50 μg/mouse), resulting in a fast onset of inflammation. Compound treatment was continued until 10 days after the mAb injection. Inflammation was read by measuring paw swelling and recording the clinical score of each paw. The cumulative clinical arthritis score of four limbs was presented to show the severity of inflammation. A scoring system is applied to each limb using a scale of 0-4, with 4 being the most severe inflammation. • 0 Symptom free • 1 Mild, but definite redness and swelling of one type of joint such as the ankle or wrist, or apparent redness and swelling limited to individual digits, regardless of the number of affected digits • 2 Moderate redness and swelling of two or more types of joints • 3 Severe redness and swelling of the entire paw including digits • 4 Maximally inflamed limb with involvement of multiple joints

Recombinant human TYK2 catalytic domain, sequence (P29597 871-1187): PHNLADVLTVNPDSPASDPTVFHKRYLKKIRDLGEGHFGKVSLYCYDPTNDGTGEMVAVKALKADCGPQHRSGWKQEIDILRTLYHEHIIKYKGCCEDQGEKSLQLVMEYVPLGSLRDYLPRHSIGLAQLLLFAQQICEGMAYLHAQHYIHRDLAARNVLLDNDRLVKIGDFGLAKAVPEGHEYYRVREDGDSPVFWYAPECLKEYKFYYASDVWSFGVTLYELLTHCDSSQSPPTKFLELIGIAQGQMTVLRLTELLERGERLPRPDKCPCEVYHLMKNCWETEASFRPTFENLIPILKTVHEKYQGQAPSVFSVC

Compound | Microsomal Stability Rat (%) [1] | pIC50 [2] | clinical score [3] | inflammation [3]
CC1CCCN(C(=O)c2ccc(-c3cccc4nc(NC(=O)C5CC5)nn34)cc2)C1 (stereo not drawn) [Compound 145, N-(5-(4-(3-methylpiperidine-1-carbonyl)phenyl)-[1,2,4]triazolo[1,5-a]pyridin-2-yl)cyclopropanecarboxamide] | * (* 0-25) |  |  | 
CC1CN(C(=O)c2ccc(-c3cccc4nc(NC(=O)C5CC5)nn34)cc2)CC(C)O1 (stereo not drawn) [Compound 215, Cyclopropanecarboxylic acid {5-[4-(2,6-dimethyl-morpholine-4-carbonyl)-phenyl]-[1,2,4]triazolo[1,5-a]pyridin-2-yl}-amide] | **** (**** 76-100) |  |  | 
N#Cc1ccc(COc2ccc(-c3cccc4nc(NC(=O)C5CC5)nn34)cc2)cn1 [Compound 176, N-(5-(4-((6-cyanopyridin-3-yl)methoxy)phenyl)-[1,2,4]triazolo[1,5-a]pyridin-2-yl)cyclopropanecarboxamide] | **** (**** 76-100) | > 7.00 | reduced the clinical score with statistical significance | significantly reduced inflammation
O=C(Nc1nc2cccc(-c3ccc(CN4CCOCC4)cc3)n2n1)C1CC1 [Compound 18, N-(5-(4-(morpholinomethyl)phenyl)-[1,2,4]triazolo[1,5-a]pyridin-2-yl)cyclopropanecarboxamide] | ** (** 26-50) | < 6.00 |  | 
CC1(C)CN(C(=O)c2ccc(-c3cccc4nc(NC(=O)C5CC5)nn34)cc2)C1 [Compound 330, Cyclopropanecarboxylic acid (5-[4-(3,3-dimethyl-azetidine-1-carbonyl)-phenyl]-[1,2,4]triazolo[1,5-a]pyridin-2-yl}-amide] | **** (**** 76-100) |  |  | 
